Entries after “also recorded” stand apart in the source; their conditions may differ. Peptide text beside a SMILES is read from it. * marks the point of attachment. Cbz = O=C(OCc1ccccc1)*
Tests used:
HiBiT-tagged WDR5 [1] = target: T1, HiBiT-tagged WDR5 (Homo sapiens, UniProt P61964+Q9Y4B6); assay: Proteasome dependence: HiBiT-WDR5 level after 5 h with PROTAC 4 and/or MG132; format: cell-based; conditions: co-treatment with PROTAC 4 at 1.5 µM
[2] = test system: MV4-11 cells expressing HiBiT WDR5; assay: ATPlite viability of MV4-11 cells expressing HiBiT WDR5, 24 h; format: cell-based; conditions: 2 nM to 10 μM
WDR5 [3] = target: WDR5 (Homo sapiens, UniProt P61964); assay: Western blot of WDR5 in MV4-11 cells, 1.5 μM PROTAC, 24 h; format: cell-based
WDR5 [4] = conditions: highest concentration of 7.5 µM, no hook effect; cited from earlier work
HiBiT-tagged WDR5 [5] = target: T1, HiBiT-tagged WDR5; assay: Exogenous HiBiT WDR5 degradation assay, 24 h; format: cell-based; conditions: for Dmax of exogenous HiBiT-WDR5 degradation: MV4-11 cells expressing HiBiT-tagged WDR5, 24 h; for Dmax: MV4-11, read-out: Dmax of exogenous HiBiT-WDR5 degradation, MV4-11 cells expressing HiBiT-tagged WDR5, 24 h
[6] = target: DCAF1-PROTAC-WDR5 ternary complex (Homo sapiens, UniProt P61964+Q9Y4B6); assay: SPR ternary complex formation: PROTAC with 0.25 µM WDR5 on immobilized DCAF1; format: binding; conditions: WDR5 0.25 µM
endogenous WDR5 = endogenous WDR5 (Homo sapiens, UniProt P61964); assay: Endogenous WDR5 degradation assay using ProteinSimple's Jess, 24 h; format: cell-based; conditions: for Dmax: MV4-11, read-out: Dmax of endogenous WDR5 degradation, parental MV4-11 cells, 24 h; for DC50: read-out: EC50 of endogenous WDR5 degradation
DCAF1 = DCAF1 (Homo sapiens, UniProt Q9Y4B6); assay: SPR ternary complex format: PROTAC alone on immobilized DCAF1; format: binding; conditions: for Rmax: PROTAC alone, absence of WDR5; for koff: read-out: koff (1/s); for kon: read-out: kon (1/Ms)
Chain of DCAF1 (Q9Y4B6 1077-1390): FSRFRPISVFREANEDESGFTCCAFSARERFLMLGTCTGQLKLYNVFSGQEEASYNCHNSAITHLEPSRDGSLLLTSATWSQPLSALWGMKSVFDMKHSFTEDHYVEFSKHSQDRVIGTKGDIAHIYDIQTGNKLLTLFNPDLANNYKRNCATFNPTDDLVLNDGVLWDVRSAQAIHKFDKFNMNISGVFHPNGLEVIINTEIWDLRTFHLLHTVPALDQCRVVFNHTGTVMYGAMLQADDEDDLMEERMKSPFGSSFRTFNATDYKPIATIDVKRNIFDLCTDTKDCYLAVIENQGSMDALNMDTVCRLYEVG

T1 sequence (Q9Y4B6 whole entry, one chain of several): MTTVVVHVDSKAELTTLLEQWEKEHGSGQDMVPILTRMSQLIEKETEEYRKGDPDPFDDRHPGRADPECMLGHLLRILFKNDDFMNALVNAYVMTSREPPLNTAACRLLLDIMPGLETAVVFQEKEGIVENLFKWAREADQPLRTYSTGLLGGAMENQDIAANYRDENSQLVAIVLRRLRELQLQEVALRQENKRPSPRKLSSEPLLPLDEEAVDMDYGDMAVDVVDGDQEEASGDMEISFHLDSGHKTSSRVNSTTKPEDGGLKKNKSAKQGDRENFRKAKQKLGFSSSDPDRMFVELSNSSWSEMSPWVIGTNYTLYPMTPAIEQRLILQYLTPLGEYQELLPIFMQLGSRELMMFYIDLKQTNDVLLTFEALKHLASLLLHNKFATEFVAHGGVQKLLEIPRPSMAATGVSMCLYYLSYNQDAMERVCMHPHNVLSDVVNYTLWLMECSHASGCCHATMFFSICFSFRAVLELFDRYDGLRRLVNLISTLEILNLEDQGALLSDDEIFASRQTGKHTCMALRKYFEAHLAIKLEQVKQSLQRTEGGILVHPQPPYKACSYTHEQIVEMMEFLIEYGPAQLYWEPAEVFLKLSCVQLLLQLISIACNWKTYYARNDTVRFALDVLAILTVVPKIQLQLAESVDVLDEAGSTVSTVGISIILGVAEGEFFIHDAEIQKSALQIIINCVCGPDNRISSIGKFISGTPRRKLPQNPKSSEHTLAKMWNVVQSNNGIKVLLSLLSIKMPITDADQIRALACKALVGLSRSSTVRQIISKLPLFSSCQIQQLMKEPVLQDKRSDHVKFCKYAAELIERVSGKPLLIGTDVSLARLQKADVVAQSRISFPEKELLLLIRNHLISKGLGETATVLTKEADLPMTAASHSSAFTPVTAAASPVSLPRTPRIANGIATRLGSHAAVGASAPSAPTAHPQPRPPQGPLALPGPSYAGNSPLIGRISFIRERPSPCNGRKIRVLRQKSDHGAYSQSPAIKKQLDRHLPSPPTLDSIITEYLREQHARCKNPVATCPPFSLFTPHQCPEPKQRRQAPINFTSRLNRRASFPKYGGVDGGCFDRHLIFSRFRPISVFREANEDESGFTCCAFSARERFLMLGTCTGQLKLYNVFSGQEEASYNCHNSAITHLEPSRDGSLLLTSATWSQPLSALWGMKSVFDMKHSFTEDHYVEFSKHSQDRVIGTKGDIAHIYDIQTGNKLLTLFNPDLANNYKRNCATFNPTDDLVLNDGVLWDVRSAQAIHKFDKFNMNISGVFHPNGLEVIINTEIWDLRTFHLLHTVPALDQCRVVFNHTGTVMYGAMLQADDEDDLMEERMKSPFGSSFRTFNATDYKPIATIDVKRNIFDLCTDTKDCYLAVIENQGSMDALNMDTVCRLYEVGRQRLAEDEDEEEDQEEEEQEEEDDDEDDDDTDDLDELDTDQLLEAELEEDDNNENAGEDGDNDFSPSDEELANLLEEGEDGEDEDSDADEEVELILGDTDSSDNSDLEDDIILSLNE
Chain of DCAF1-PROTAC-WDR5 ternary complex (Q9Y4B6 1077-1390, one chain of several): as the sequence (Q9Y4B6 1077-1390) above

HiBiT-WDR5 level reached on rescue by MG132 (HiBiT-tagged WDR5 [1])	WDR5 protein level by Western blot (WDR5 [3])	Rmax [6]	Dmax (endogenous WDR5) [%]	DC50 (endogenous WDR5; parental MV4-11 cells, 24 h) [nM]	Kd (DCAF1) [nM]	Rmax (DCAF1)	koff (DCAF1) [s⁻¹]	kon (DCAF1) [M⁻¹ s⁻¹]	Dmax (HiBiT-tagged WDR5 [5]) [%]	Dmax of endogenous WDR5 degradation (endogenous WDR5; parental MV4-11 cells, 24 h) [%]	degradation of endogenous WDR5 in cells (endogenous WDR5; MV4-11 cells)	degradation of exogenous WDR5 in cells (HiBiT-tagged WDR5 [5]; MV4-11 cells)	SMILES	toxicity / viability after 24 h (ATPlite) [2]	Dmax of WDR5 degradation (WDR5 [4])	Dmax of exogenous HiBiT-WDR5 degradation (HiBiT-tagged WDR5 [5]) [%]
approximately 100%													CC(C)C[C@@H](C=O)NC(=O)[C@H](CC(C)C)NC(=O)[C@H](CC(C)C)NC(=O)OCc1ccccc1 [MG132] (Cbz-Leu-Leu-Leu-aldehyde)			
	moderate WDR5 degradation	390	23.5 ± 11.4	186 ± 89	46 ± 0.4	101	0.011	249000	31.6 ± 5.5				C[C@@H]1CN(c2ccc(-c3cc(C(=O)NCCOCCOCCOCCOCCNC(=O)/C=C/c4[nH]cc(C(=O)N[C@@H](CC(N)=O)c5ccc(F)c(Cl)c5)c4-c4ccc(Cl)cc4F)ccc3F)cc2NC(=O)c2c[nH]c(=O)cc2C(F)(F)F)C[C@H](C)N1C [PROTAC 1]			32
	moderate WDR5 degradation	621	21.9 ± 11.1	135 ± 6	38 ± 0.6	106	0.008		41.2 ± 2.5				C[C@@H]1CN(c2ccc(-c3cc(C(=O)NCCOCCOCCOCCOCCNC(=O)Cn4cc(-c5[nH]cc(C(=O)N[C@@H](CC(N)=O)c6ccc(F)c(Cl)c6)c5-c5ccc(Cl)cc5F)cn4)ccc3F)cc2NC(=O)c2c[nH]c(=O)cc2C(F)(F)F)C[C@H](C)N1C [PROTAC 2]			
	moderate WDR5 degradation	685	33.4 ± 6.8	93 ± 37	48 ± 2.8	42	0.003	69600	41.9 ± 4.5				C[C@@H]1CN(c2ccc(-c3cc(C(=O)NCCOCCOCCOCCOCCOCCOCCNC(=O)/C=C/c4[nH]cc(C(=O)N[C@@H](CC(N)=O)c5ccc(F)c(Cl)c5)c4-c4ccc(Cl)cc4F)ccc3F)cc2NC(=O)c2ccc(F)cc2C(F)(F)F)C[C@H](C)N1C [PROTAC 3]			
											did not degrade	did not degrade	C[C@@H]1CN(c2ccc(-c3cc(C(=O)NCCCNC(=O)/C=C/c4[nH]cc(C(=O)N[C@@H](CC(N)=O)c5ccc(F)c(Cl)c5)c4-c4ccc(Cl)cc4F)ccc3F)cc2NC(=O)c2c[nH]c(=O)cc2C(F)(F)F)C[C@H](C)N1C [PROTAC 5]			

SMILES	HiBiT-WDR5 level reached on rescue by MG132 (HiBiT-tagged WDR5 [1])	WDR5 protein level by Western blot (WDR5 [3])	Rmax [6]	Dmax (endogenous WDR5) [%]	DC50 (endogenous WDR5; parental MV4-11 cells, 24 h) [nM]	Kd (DCAF1) [nM]	Rmax (DCAF1)	koff (DCAF1) [s⁻¹]	kon (DCAF1) [M⁻¹ s⁻¹]	Dmax (HiBiT-tagged WDR5 [5]) [%]	Dmax of endogenous WDR5 degradation (endogenous WDR5; parental MV4-11 cells, 24 h) [%]	degradation of endogenous WDR5 in cells (endogenous WDR5; MV4-11 cells)	degradation of exogenous WDR5 in cells (HiBiT-tagged WDR5 [5]; MV4-11 cells)	toxicity / viability after 24 h (ATPlite) [2]	Dmax of WDR5 degradation (WDR5 [4])	Dmax of exogenous HiBiT-WDR5 degradation (HiBiT-tagged WDR5 [5]) [%]
Cc1ncsc1-c1ccc([C@H](C)NC(=O)[C@@H]2C[C@@H](O)CN2C(=O)[C@@H](NC(=O)CNC(=O)c2ccc(F)c(-c3ccc(N4C[C@@H](C)N(C)[C@@H](C)C4)c(NC(=O)c4c[nH]c(=O)cc4C(F)(F)F)c3)c2)C(C)(C)C)cc1 [MS67, reference compound]		significantly decreased; also recorded: comparable levels of WDR5 degradation												displayed some toxicity	~ 70%	78.7
C[C@@H]1CN(c2ccc(-c3cc(C(=O)NCCOCCOCCOCCOCCOCCOCCOCCOCCOCCNC(=O)/C=C/c4[nH]cc(C(=O)N[C@@H](CC(N)=O)c5ccc(F)c(Cl)c5)c4-c4ccc(Cl)cc4F)ccc3F)cc2NC(=O)c2c[nH]c(=O)cc2C(F)(F)F)C[C@H](C)N1C [PROTAC 4]		significantly decreased; also recorded: comparable levels of WDR5 degradation	818	49.1	40 ± 24	59 ± 0.9	102	0.014	239000	73.8 ± 2.9	49 ± 1.9			did not show a significant toxicity		
